Source: patent US7648997B2, “Hydroxylamine substituted imidazoquinolines” (Coley Pharmaceutical Group, Inc., priority 2003, dated 2010)

| SMILES | melting point [°C] |
| --- | --- |
| CCCc1nc2c(N)nc3ccccc3c2n1CCCON [Example 1, 1-[3-(Aminooxy)propyl]-2-propyl-1H-imidazo[4,5-c]quinolin-4-amine] | 145 to 148 |
| CCCc1nc2c(N)nc3ccccc3c2n1CCCONC(=O)C1CC1 [Example 2, N-[3-(4-Amino-2-propyl-1H-imidazo[4,5-c]quinolin-1-yl)propoxy]cyclopropanecarboxamide] | 103 to 105 |
| CCCCc1nc2c(N)nc3ccccc3c2n1CCCCONC(C)C [Example 72, 2-Butyl-1-{4-[(isopropylamino)oxy]butyl}-1H-imidazo[4,5-c]quinolin-4-amine] | 115 to 117 |
| CCCc1nc2c(N)nc(C)c(C)c2n1CCCONC(C)c1ccccc1 (centres unmarked) [Example 129, 6,7-Dimethyl-1-(3-{[(1-phenylethyl)amino]oxy}propyl)-2-propyl-1H-imidazo[4,5-c]pyridin-4-amine] | 125 to 127 |
| CCCc1nc2c(N)nc3ccccc3c2n1CCCONC(C)C [Example 130, 1-{3-[(Isopropylamino)oxy]propyl}-2-propyl-1H-imidazo[4,5-c]quinolin-4-amine] | 147 to 150 |

More lines, now with the values ahead:

| melting point [°C] | SMILES |
| --- | --- |
| 176 to 178 | CCCc1nc2c(N)nc3cc(Br)ccc3c2n1CCCONC(=O)C(C)C [Example 137, N-[3-(4-Amino-7-bromo-2-propyl-1H-imidazo[4,5-c]quinolin-1-yl)propoxy]-2-methylpropanamide] |
| 169 to 171 | CCCc1nc2c(N)nc3cc(-c4ccccc4)ccc3c2n1CCCONC(=O)C(C)C [Example 138, N-[3-(4-Amino-7-phenyl-2-propyl-1H-imidazo[4,5-c]quinolin-1-yl)propoxy]-2-methylpropanamide] |
| 142 to 144 | CCOCc1nc2c(N)nc3cc(-c4ccccc4)cnc3c2n1CCCONC(C)C [Example 139, 2-(Ethoxymethyl)-1-{3-[(isopropylamino)oxy]propyl}-7-phenyl-1H-imidazo[4,5-c][1,5]naphthyridin-4-amine] |
